Results taken from EP3878447A1, “BETA ADRENERGIC RECEPTOR ANTAGONISTS” (InterAx Biotech AG, priority 2020, dated 2021).
Counter-ions that a name gives are not always drawn. Like-named read-outs stand apart in the source and are kept apart here.

Legend:
[1] = biological target: B1AR (Homo sapiens, UniProt P08588); experiment: Real-time cAMP inhibition assay in SNAP-B1AR-EPAC HEK cells; details: SNAP-B1AR-EPAC HEK cells stimulated with 50 nM Isoproterenol for 10 min, compound for additional 40 min, AUC of EPAC FRET ratio; mean ± SD
[2] = biological target: T1, B2AR (Homo sapiens, UniProt P07550); experiment: Heterologous competition radioligand binding assay ([3H]-DHA) on SNAP-B2AR HEK membranes; details: equilibrium competition binding with 1 nM [3H]-DHA, 120 min RT, mean ± SD
[3] = biological target: T1, B2AR
[4] = biological target: T1, B2AR; experiment: biochemical
[5] = biological target: T1, B2AR; experiment: Saturation binding of [3H]-DHA on SNAP-B2AR HEK membranes; design: membranes prepared from it; details: 5 µg SNAP-B2AR HEK membranes, specific binding; Mean ± SD, n=3; read-out: equilibrium dissociation constant (KD)

B1AR, sequence (P08588 whole entry): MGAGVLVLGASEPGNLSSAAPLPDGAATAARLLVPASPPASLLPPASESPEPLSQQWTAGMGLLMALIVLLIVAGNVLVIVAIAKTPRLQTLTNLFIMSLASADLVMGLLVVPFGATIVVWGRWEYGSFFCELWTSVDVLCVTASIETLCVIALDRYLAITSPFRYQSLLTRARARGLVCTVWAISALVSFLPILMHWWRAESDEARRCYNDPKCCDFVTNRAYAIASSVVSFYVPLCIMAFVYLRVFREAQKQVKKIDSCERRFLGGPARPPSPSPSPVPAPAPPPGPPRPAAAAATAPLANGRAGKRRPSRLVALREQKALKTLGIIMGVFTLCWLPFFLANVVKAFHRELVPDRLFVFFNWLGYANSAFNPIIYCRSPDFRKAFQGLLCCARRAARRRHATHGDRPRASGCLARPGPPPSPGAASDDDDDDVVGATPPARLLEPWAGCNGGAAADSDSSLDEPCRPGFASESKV

Row | Compound | pKi [2] | Ki [3] | Ki [4] | also measured
1 | 4-[2-(aminomethyl)-2,3-dihydro-1-benzofuran-7-yl]benzamide [Compound 7] | 6.0 ± 0.1 | 1260 nM |  | pIC50 [1]: 4.6 ± 0.5
2 | 5-[2-(aminomethyl)-2,3-dihydro-1-benzofuran-7-yl]pyridin-2-amine [Compound 5] | 5.5 ± 0.1 | 2510 nM |  | 
3 | NCC1Cc2cccc(-c3ccc(O)cc3)c2O1 (stereo not drawn) [Compound 4, 4-[2-(aminomethyl)-2,3-dihydro-1-benzofuran-7-yl]phenol] |  |  | 100 to 1000 nM | 
4 | CCCc1ccccc1OC[C@@H](O)CNC(C)C [[^3H]-DHA, Dihydroalprenolol Hydrochloride, Levo-[Ring, Propyl-3H(N)]-] |  |  |  | Kd [5]: 0.3 ± 0.1 nM

Continued, in another order:

Row | pKi [2] | Ki [3] | Ki [4] | Compound | also measured
5 |  |  | 100 to 1000 nM | COc1ccc(-c2cc(F)cc3c2OC(CN)C3)cn1 (stereo not drawn) [Compound 6, 1-[5-fluoro-7-(6-methoxypyridin-3-yl)-2,3-dihydro-1-benzofuran-2-yl]methanamine] | 
6 |  |  | 100 to 1000 nM | NCC1Cc2cccc(-c3ccc(O)c(F)c3)c2O1 (stereo not drawn) [Compound 8, 4-[2-(aminomethyl)-2,3-dihydro-1-benzofuran-7-yl]-2-fluorophenol] | 
